PubChem BioAssay (NCI)
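96-well plates; 48 h exposure; 5 concentrations. Endpoints by linear interpolation between flanking doses. Not reached: highest tested concentration assigned. At the GI50, growth is halved. TGI: concentration producing complete growth inhibition.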

Key:
Experiment in all cases: NCI-60 cell line screen, 48 h
SK-MEL-28 melanoma = system: SK-MEL-28 melanoma
OVCAR-5 ovarian = system: OVCAR-5 ovarian
MDA-MB-435 = system: MDA-MB-435
NCI-H522 lung = system: NCI-H522 lung
RXF 393 renal = system: RXF 393 renal
SK-OV-3 ovarian = system: SK-OV-3 ovarian
LOX IMVI melanoma = system: LOX IMVI melanoma

| SMILES | TGI (SK-MEL-28 melanoma) [µM] | TGI (OVCAR-5 ovarian) [µM] | TGI (MDA-MB-435) [µM] | TGI (NCI-H522 lung) [µM] | TGI (RXF 393 renal) [µM] | TGI (SK-OV-3 ovarian) [µM] | GI50 (SK-MEL-28 melanoma) [µM] | GI50 (LOX IMVI melanoma) [µM] | TGI (LOX IMVI melanoma) [µM] | GI50 (OVCAR-5 ovarian) [µM] | GI50 (MDA-MB-435) [µM] | GI50 (NCI-H522 lung) [µM] | GI50 (RXF 393 renal) [µM] | GI50 (SK-OV-3 ovarian) [µM] |
| --- | --- | --- | --- | --- | --- | --- | --- | --- | --- | --- | --- | --- | --- | --- |
| COc1cc([N+](=O)[O-])c(S(=O)(=O)O)cc1-[n+]1nc(C(=O)Nc2ccccc2)nn1-c1ccc([N+](=O)[O-])c(S(=O)(=O)[O-])c1 | > 100 | > 100 | > 100 | > 100 | > 100 | > 100 |  |  |  |  |  |  |  |  |
| COc1cc(-c2ccc[nH]2)[nH]c1/C=C1\N=C(C)C(C(=O)NC(C)C)=C1C | 19.8 | 17.3 | 19.5 | 6.65 | 9.66 | 22.8 | 7.17 | 0.74 | 2.52 | 2.97 | 4.51 | 2.15 | 2.28 | 10.7 |
| CCCCCCC1CCCCN1C(c1ccccc1)C(O)c1ccccc1 (stereo unspecified) | 22.1 | 22 | 19.2 | 18.5 | 6.77 | 25.1 | 9.99 | 3.04 | 12.4 | 10.1 | 4.71 | 5.1 | 2.18 | 12.2 |
| Cc1cc(=O)[nH]c2c1C(=O)c1c(C)cc(=O)n(C)c1C2=O | 0.0351 | 0.31 | 0.0275 | 0.187 | 0.281 | 0.432 |  |  | 0.26 |  |  |  |  |  |
| CN1CCC(C(=O)Nc2n[nH]c3nnc(-c4ccccc4)cc23)CC1 | > 25 | > 25 | > 25 | > 25 | > 25 | > 25 | > 25 | 20.3 | > 25 | > 25 | > 25 | > 25 | 12.3 | 16.6 |
| COc1ccc2c(c1)CCC1C2CCC2(C)C(NC(=O)CCCCC3CCSS3)CCC12 (stereo unspecified) | > 100 | > 100 | > 100 | > 100 | > 100 | > 100 | 25.6 | 32.5 | > 100 | > 100 | 9.3 | 9.4 | 27 | 43.8 |
| CC(C)OC(=O)c1cc(NC(=S)OC(C)C)ccc1Cl | > 57 | > 63.1 | 31.4 | 26.6 | 62.7 | > 62.6 |  |  | 31.2 |  |  |  |  |  |
| CC1(C)N=C(N)N=C(N)N1c1ccc(CCCCCCc2ccc(S(=O)(=O)F)cc2)cc1 | 37.7 | 15 | 21.2 | 20.2 | > 33.1 | 23.3 |  |  | > 20.9 |  |  |  |  |  |
| COc1cc(C(=O)/C=C/c2c(C)n([O-])c3ccc(Cl)cc3[n+]2=O)cc(OC)c1OC | 52.9 | > 100 | > 100 | 2.8 | 91 | > 100 | 10.8 | 5.78 | > 100 | 27 | 3.4 | 1.12 | 3.37 | 24.9 |
| COc1cc2c(cc1OC)C(Sc1ccc(Cl)cc1)c1c(nc(N)c(C#N)c1N)O2 (stereo unspecified) | 3.11 | 3.88 | 2.85 | 2.64 | 2.77 | 3.12 | 1.57 | 1.09 | 2.35 | 1.89 | 1.42 | 1.29 | 1.39 | 1.74 |
